Experimental findings from publication PMC8887546, “Design and Synthesis of Brain Penetrant Glycopeptide Analogues of PACAP With Neuroprotective Potential for Traumatic Brain Injury and Parkinsonism” (Frontiers in drug discovery, 2022) are described below.

Test [1] concerns C57BL/6 mice, diffuse TBI. The test can be described thus: Iba1 microglial skeletal analysis after TBI. The following applies: 10 mg/kg i.p. 30 min prior to TBI, 15 DPI, cortex. Format: in vivo, mouse. How it is done: (§1) 30 min prior to TBI or sham injury, mice were randomly assigned to a therapeutic group and received an intraperitoneal injection of 2LS80Mel (10 mg/kg) or sterile saline (0.25 ml). Groups were as follows: TBI-2LS80Mel n = 17; TBI-vehicle n = 17; sham n = 22 (vehicle n = 11, 2LS80Mel n = 11).
(§2) For injury induction 24 h post-surgery, mice were re-anesthetized with 5% isoflurane delivered for 3 min. The cap was removed from the injury-hub assembly and the dura was visually inspected through the hub to ensure it was intact with no debris. The hub was then filled with normal saline and attached to an extension tube connected to the male end of the fluid percussion device (Custom Design and Fabrication, Virginia Commonwealth University, Richmond, VA). An injury of moderate severity for our injury model (1.4 atm) was administered by releasing the pendulum onto the fluid-filled cylinder following the return of a toe-pinch response. Sham mice underwent the same procedure except the pendulum was not released. Injured mice were monitored for presence of a forearm fencing response and righting reflex times were recorded as indicators of injury severity ([Hosseini and Lifshitz, 2009]). […] After spontaneously righting, mice were placed in a heated recovery cage and monitored until they were ambulatory (approximately 5–15 min) before being returned to their piezoelectric sleep cage (see below). […]

The test system of test [2] is C57BL/6 mice, diffuse TBI. Description: Plasma cytokine measurement after TBI. The following applies: 10 mg/kg i.p. 30 min prior to TBI. Format: in vivo, mouse. The procedure:
as §1
as §2, with “2009]). The righting reflex time is the total time from the initial impact until the mouse spontaneously rights itself from a supine position. The fencing response is a tonic posturing characterized by extension and flexion of opposite arms that has been validated as an overt indicator of injury severity ([Hosseini and Lifshitz, 2009]). The injury hub was removed, and the brain was inspected for uniform herniation and integrity of the dura. The incision was cleaned with saline and closed using sutures. Moderately brain-injured mice had righting reflex recovery times greater than 4 min and a positive fencing response. Righting reflex times for TBI-2LS80Mel mice were 477.13 ± 83.13 s and the righting reflex times for TBI-vehicle mice were 417.05 ± 107.47 s.” for “2009]).”
Approximately 75 μl of blood were centrifuged to collect approximately 40 μl of plasma from each animal at 2 and 14 days post-injury ([Saber et al., 2020]). Multiplex cytokine assays (MILLIPLEX MAP Mouse Cytokine/Chemokine Magnetic Bead Panel, Millipore Sigma, Burlington, MA) quantified interleukin (IL)-1β, IL-6, and tumor necrosis factor (TNF)-α in peripheral blood. […] Fluorescent intensity was measured on a Bio-Plex® 200 system (Bio-Rad Laboratories, Hercules, CA) and corresponded to the concentration of each analyte in plasma samples. Duplicate values were averaged and analyzed between groups. […]

The target of test [3] is T1, human VPAC1 receptor (Homo sapiens, UniProt P32241).
T1 construct: expressed in transfected cells; host or cells: CHO cells (G418 selection)
T1 sequence (P32241 31-457): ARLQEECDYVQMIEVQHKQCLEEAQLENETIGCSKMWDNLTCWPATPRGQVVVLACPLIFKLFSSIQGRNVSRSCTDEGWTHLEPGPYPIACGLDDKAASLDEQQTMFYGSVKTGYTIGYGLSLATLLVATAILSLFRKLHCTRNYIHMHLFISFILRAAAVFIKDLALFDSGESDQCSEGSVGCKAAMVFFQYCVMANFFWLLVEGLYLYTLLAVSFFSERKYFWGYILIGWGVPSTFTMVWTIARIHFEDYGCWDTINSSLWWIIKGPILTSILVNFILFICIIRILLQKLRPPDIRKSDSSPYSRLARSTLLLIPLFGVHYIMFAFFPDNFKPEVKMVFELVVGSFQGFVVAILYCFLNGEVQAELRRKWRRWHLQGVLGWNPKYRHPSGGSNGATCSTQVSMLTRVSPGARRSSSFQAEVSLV
The test can be described thus: cAMP stimulation in CHO cells expressing VPAC1. Format: cell-based.

The term Emax denotes the size of the effect at its maximum, as opposed to the concentration needed. One may read the EC50 as the concentration at which the effect is half-maximal.

For `CC[C@H](C)[C@H](NC(=O)CNC(=O)[C@H](CC(=O)O)NC(=O)[C@H](CO)NC(=O)[C@@H](N)Cc1c[nH]cn1)C(=O)N[C@@H](Cc1ccccc1)C(=O)N[C@H](C(=O)N[C@@H](CC(=O)O)C(=O)N[C@@H](CO)C(=O)N[C@@H](Cc1ccc(O)cc1)C(=O)N[C@@H](CO)C(=O)N[C@@H](CCCNC(=N)N)C(=O)N[C@@H](Cc1ccc(O)cc1)C(=O)N[C@@H](CCCNC(=N)N)C(=O)N[C@@H](CCCCN)C(=O)N[C@@H](CCC(N)=O)C(=O)N[C@@H](CC(C)C)C(=O)N[C@@H](C)C(=O)N[C@H](C(=O)N[C@@H](CCCCN)C(=O)N[C@@H](CCCCN)C(=O)N[C@@H](Cc1ccc(O)cc1)C(=O)N[C@@H](CC(C)C)C(=O)N[C@@H](C)C(=O)N[C@@H](C)C(=O)N[C@H](C(=O)N[C@@H](CC(C)C)C(=O)N[C@@H](CO[C@@H]1O[C@H](CO[C@H]2O[C@H](CO)[C@H](O)[C@H](O)[C@H]2O)[C@@H](O)[C@H](O)[C@H]1O)C(N)=O)C(C)C)C(C)C)[C@@H](C)O` [Compound 2LS80Mel], the Microglial ramification entry in test [1] was “no significant differences”. Further, in test [2] (2 DPI), the “Plasma IL-1β” value is reported as “no differences”, the “Plasma IL-6” value is “no differences” and the “Plasma TNF-α” value was “no differences”. Further, the “Peripheral cytokines (IL-1β, IL-6, TNF-α)” value in test [2] (14 DPI, data not shown) is “no differences”.

Regarding `[2H]C([2H])([2H])C([2H])(C([2H])([2H])[2H])[C@]([2H])(NC(=O)[C@H](C)NC(=O)[C@H](C)NC(=O)[C@H](CC(C)C)NC(=O)[C@H](Cc1ccc(O)cc1)NC(=O)[C@H](CCCCN)NC(=O)[C@H](CCCCN)NC(=O)[C@@]([2H])(NC(=O)[C@H](C)NC(=O)[C@H](CC(C)C)NC(=O)[C@H](CCC(N)=O)NC(=O)[C@H](CCCCN)NC(=O)[C@H](CCCNC(=N)N)NC(=O)[C@H](Cc1ccc(O)cc1)NC(=O)[C@H](CCCNC(=N)N)NC(=O)[C@H](CO)NC(=O)[C@H](Cc1ccc(O)cc1)NC(=O)[C@H](CO)NC(=O)[C@H](CC(=O)O)NC(=O)[C@@H](NC(=O)[C@H](Cc1ccccc1)NC(=O)[C@@H](NC(=O)CNC(=O)[C@H](CC(=O)O)NC(=O)[C@H](CO)NC(=O)[C@@H](N)Cc1c[nH]cn1)[C@@H](C)CC)[C@@H](C)O)C([2H])(C([2H])([2H])[2H])C([2H])([2H])[2H])C(=O)N[C@@H](CC(C)C)C(=O)N[C@@H](CO[C@@H]1O[C@H](CO)[C@@H](O[C@@H]2O[C@H](CO)[C@H](O)[C@H](O)[C@H]2O)[C@H](O)[C@H]1O)C(N)=O` [Compound 2LS98Lac], in test [3] (CHO, read-out: VPAC1 Emax), the maximum response (Emax) stood at 101%. Besides, in test [3] (ratio of cAMP EC50 values), the “Receptor selectivity ratio VPAC1/PAC1” value stood at 0.63. Further, the EC50 in test [3] (read-out: VPAC1 EC50) stood at 0.45 nM.
